Patent US12466856B2, “Echinocandin analogues and preparation method therefor” (SHANGHAI SENHUI MEDICINE CO., LTD., priority 2019, dated 2025)
≈ marks a conversion by molar mass, not a printed value. Where two headings read alike, the source gives them in different places. Starred links: 1 amine or outer side, 2 acyl side, 3 side chain; linkers in the order of their positions; H or OH if unused. Positions of bridges follow the written chain, without caps; N, C: chain ends. Non-standard residues stand in square brackets, D forms with d. Residues, ends and D or L forms follow the SMILES beside them. *: point of attachment. Orn(4R-OH,5R-OCH2CH2NMe3+) = C[N+](C)(C)CCO[C@@H](N[*:3])[C@H](O)C[C@H](N[*:1])C(=O)[*:2]; pTerphenylCO(4''-OnC5H11) = CCCCCOc1ccc(-c2ccc(-c3ccc(C(=O)*)cc3)cc2)cc1; Orn(4R-OH,5R-OH) = O=C([C@H](C[C@@H](O)[C@@H](O)N[*:3])N[*:1])[*:2]; hTyr(3S-OH,4S-OH) = N[C@H](C(=O)O)[C@H](O)[C@@H](O)c1ccc(O)cc1; X2 = CCCCCCc1ccc(-c2ccc(-c3ccc(C(=O)*)cc3)cc2)cc1; X3 = CCCCCNc1ccc(-c2ccc(-c3ccc(C(=O)*)cc3)cc2)cc1; Pro(3S-OH,4S-Me) = C[C@H]1CN[C@H](C(=O)O)[C@H]1O; Hyp = O=C(O)[C@@H]1C[C@@H](O)CN1

Legend:
Assay type in all cases: cell-based
[1] = system: Candida albicans ATCC 90029; assay: MIC assay (CLSI M27-A3), Candida albicans ATCC 90029; conditions: Candida albicans, read-out: MIC, Candida albicans ATCC 90029
Experimental: (§1) After a test compound was serially diluted, an MIC (minimum inhibitory concentration) assay was performed on the standard Candida strain and an MEC (minimum effective concentration) assay on the standard Aspergillus strain. The MIC assay was performed according to the guidelines of the Clinical and Laboratory Standards Institute (CLSI M27-A3) and the MEC assay according to the guidelines of the Clinical and Laboratory Standards Institute (CLSI M38-A2).
(§2) The frozen strain was passaged at least twice, and a single colony was picked and resuspended in normal saline or sterile water in a tube. The suspension was vortexed and adjusted to 0.5 McF (1×10^6 to 5×10^6 CFU/mL) using a spectrophotometer at wavelength 530 nm. The suspension was 50-fold diluted with normal saline and then 20-fold diluted with 1×RPMI 1640 broth (1×10^3 to 5×10^3 CFU/mL). 10 μL of the suspension was applied to an SDA plate for colony counting, with a range from about 10 to 50 single colonies.
(§3) At this time, the bacterium concentration in each well should be 0.5×10^3 to 2.5×10^3 CFU/mL.
(§4) For echinocandin drugs, Aspergillus was incubated at 28° C. for 21-26 h, and then the MEC results were read.
(§5) Yeast-type fungi: A disposable sealing film was applied to the 96-well plate, and the mixture was well mixed by shaking. Observation was performed through a plate reader with the naked eye. Comparisons were made to the growth control, and the minimum compound concentration corresponding to ≥50% growth inhibition was defined as MIC. Pictures were taken and saved using an automatic plate reader.

[2] = system: Candida glabrata ATCC 15126; assay: MIC assay (CLSI M27-A3), Candida glabrata ATCC 15126; conditions: Nakaseomyces glabratus, read-out: MIC, Candida glabrata ATCC 15126
Experimental: as §1, §2, §3, §4, §5

[3] = system: Candida parapsilosis ATCC 22019; assay: MIC assay (CLSI M27-A3), Candida parapsilosis ATCC 22019; conditions: Lodderomyces parapsilosis, ATCC22019, 24 h, read-out: MIC, Candida parapsilosis ATCC 22019
Experimental: as §1, §2, §3, §4, §5

Candida krusei ATCC 6258 = assay: MIC assay (CLSI M27-A3), Candida krusei ATCC 6258; conditions: Pichia kudriavzevii, ATCC6258, 24 h, read-out: MIC, Candida krusei ATCC 6258
Experimental: as §1, §2, §3, §4, §5

[4] = system: Meyerozyma guilliermondii ATCC 6260; assay: MIC assay (CLSI M27-A3), Meyerozyma guilliermondii ATCC 6260; conditions: Meyerozyma guilliermondii, read-out: MIC, Meyerozyma guilliermondii ATCC 6260
Experimental: as §1, §2, §3, §4, §5

[5] = system: Candida tropicalis ATCC 750; assay: MIC assay (CLSI M27-A3), Candida tropicalis ATCC 750; conditions: Candida tropicalis, read-out: MIC, Candida tropicalis ATCC 750
Experimental: as §1, §2, §3, §4, §5

[6] = system: Aspergillus flavus ATCC 28539; assay: MEC assay (CLSI M38-A2), Aspergillus flavus ATCC 28539; conditions: first batch; 28° C., 21-26 h
Experimental: The MIC assay was performed according to the guidelines of the Clinical and Laboratory Standards Institute (CLSI M27-A3) and the MEC assay according to the guidelines of the Clinical and Laboratory Standards Institute (CLSI M38-A2).
Colonies on the plate were covered with about 1 mL of 0.85% normal saline or sterile water (polysorbate 20 was added at a final concentration of 0.1%-0.01%). […] The homogeneous upper layer of the suspension was transferred to a new sterile tube, which was then sealed and vortexed for 15 s (be careful as the suspension may produce an aerosol when the cover is removed). The concentration of the suspension was adjusted until an OD value of 0.09-0.13 was achieved using a spectrophotometer at 530 nm. […] 100 μL of sample was added to each well of the 96-well plate within 2 h after dilution (the final spore concentration in the susceptibility testing plate was at 0.4×10^4 to 5×10^4 CFU/mL).
Aspergillus: For echinocandin drugs, comparisons were made to the growth control under a plate reader, and the minimum drug concentration that could cause the hyphae to form small, round, compact hyphal particles was defined as MEC. For accurate determination of MEC values, the plate must not be vortexed before reading.

[7] = system: Candida albicans ATCC 90028; assay: MIC assay (CLSI M27-A3), Candida albicans ATCC 90028; conditions: Candida albicans
Experimental: as §1, §2
At this time, the bacterium concentration in each well should be 0.5×10^3 to 2.5×10^3 CFU/mL. […]
as §5

[8] = system: Candida albicans ATCC 44858; assay: MIC assay (CLSI M27-A3), Candida albicans ATCC 44858; conditions: Candida albicans, ATCC44858, read-out: MIC, Candida albicans ATCC 44858
Experimental: as §1, §2, §3, §4, §5

[9] = system: Candida glabrata ATCC 36583; assay: MIC assay (CLSI M27-A3), Candida glabrata ATCC 36583; conditions: Nakaseomyces glabratus, ATCC36583, read-out: MIC, Candida glabrata ATCC 36583
Experimental: as §1, §2, §3, §4, §5

[10] = system: Candida albicans (azole drug-resistant strain) R357; assay: MIC assay (CLSI M27-A3), Candida albicans azole drug-resistant strain R357; conditions: Candida albicans, read-out: MIC, Candida albicans (azole drug-resistant strain) R357
Experimental: as §1, §2, §3, §4, §5

[11] = system: Candida albicans (azole drug-resistant strain) R358; assay: MIC assay (CLSI M27-A3), Candida albicans azole drug-resistant strain R358; conditions: Candida albicans, read-out: MIC, Candida albicans (azole drug-resistant strain) R358
Experimental: as §1, §2, §3, §4, §5

[12] = system: Candida tropicalis (amphotericin-resistant strain) ATCC 200956; assay: microbe, parasite or virus in culture; conditions: Candida tropicalis, ATCC200956, read-out: MIC, Candida tropicalis (amphotericin-resistant strain) ATCC 200956
Experimental: as §1, §2, §3, §4, §5

[13] = ATCC90028, 24 h, read-out: MIC, Candida albicans ATCC 90028
[14] = ATCC90028, read-out: MIC, Candida albicans + 50% human serum ATCC 90028

Compound: CCCCCOc1ccc(-c2ccc(-c3ccc(C(=O)N[C@H]4C[C@@H](O)[C@@H](O)NC(=O)[C@@H]5[C@@H](O)[C@@H](C)CN5C(=O)[C@H]([C@@H](C)O)NC(=O)[C@H]([C@H](O)[C@@H](O)c5ccc(O)cc5)NC(=O)[C@@H]5C[C@@H](O)CN5C(=O)[C@H]([C@@H](C)O)NC4=O)cc3)cc2)cc1 [Anidulafungin, reference compound] ({pTerphenylCO(4''-OnC5H11)}-[Orn(4R-OH,5R-OH)]T[Hyp][hTyr(3S-OH,4S-OH)]T[Pro(3S-OH,4S-Me)]; lactam 1-C)
- MIC ([1]; ATCC90029, 24 h): 0.016 µg/mL (≈ 0.014 µM)
- MIC ([2]; ATCC15126, 24 h): 0.125 µg/mL (≈ 0.11 µM)
- MIC [3]: 0.5 µg/mL (≈ 0.438 µM)
- MIC (Candida krusei ATCC 6258): 0.063 µg/mL (≈ 0.0553 µM)
- MIC ([4]; ATCC6260, 24 h): 1 µg/mL (≈ 0.877 µM)
- MIC ([5]; ATCC750, 24 h): 0.016 µg/mL (≈ 0.014 µM)
- MEC, Aspergillus flavus ATCC 28539 [6]: 0.031 µg/mL

Compound: CCCCCOc1ccc(-c2ccc(-c3ccc(C(=O)N[C@H]4C[C@@H](O)[C@@H](OCC5CCCC[N+]5(C)C)NC(=O)[C@@H]5[C@@H](O)[C@@H](C)CN5C(=O)[C@H]([C@@H](C)O)NC(=O)[C@H]([C@H](O)[C@@H](O)c5ccc(O)cc5)NC(=O)[C@@H]5C[C@@H](O)CN5C(=O)[C@H]([C@@H](C)O)NC4=O)cc3)cc2)cc1 (stereo partly shown) [Example 2]
- MIC ([1]; ATCC90029, first batch, 24 h, 35° C., ≥50% growth inhibition): 0.125 µg/mL
- MIC ([2]; ATCC15126, first batch, 24 h, 35° C., ≥50% growth inhibition): 0.125 µg/mL
- MIC [3]: 1 µg/mL
- MIC (Candida krusei ATCC 6258): 0.125 µg/mL
- MIC ([4]; ATCC6260, first batch, 24 h, 35° C.): 2 µg/mL
- MIC ([5]; ATCC750, first batch, 24 h, 35° C.): 0.016 µg/mL
- MEC, Aspergillus flavus ATCC 28539 [6]: 0.031 µg/mL

Compound: CCCCCCc1ccc(-c2ccc(-c3ccc(C(=O)N[C@H]4C[C@@H](O)[C@@H](OCC[N+](C)(C)C)NC(=O)[C@@H]5[C@@H](O)[C@@H](C)CN5C(=O)[C@H]([C@@H](C)O)NC(=O)[C@H]([C@H](O)[C@@H](O)c5ccc(O)cc5)NC(=O)[C@@H]5C[C@@H](O)CN5C(=O)[C@H]([C@@H](C)O)NC4=O)cc3)cc2)cc1 [Example 16] (X2-[Orn(4R-OH,5R-OCH2CH2NMe3+)]T[Hyp][hTyr(3S-OH,4S-OH)]T[Pro(3S-OH,4S-Me)]; lactam 1-C)
- MIC [7, 13]: 0.25 µg/mL
- MIC [7, 14]: 0.5 µg/mL
- MIC [8]: 0.25 µg/mL
- MIC [9]: 0.25 µg/mL
- MIC [10]: 0.25 µg/mL
- MIC [11]: 0.25 µg/mL
- MIC [12]: 0.25 µg/mL

Compound: CCCCCNc1ccc(-c2ccc(-c3ccc(C(=O)N[C@H]4C[C@@H](O)[C@@H](OCC[N+](C)(C)C)NC(=O)[C@@H]5[C@@H](O)[C@@H](C)CN5C(=O)[C@H]([C@@H](C)O)NC(=O)[C@H]([C@H](O)[C@@H](O)c5ccc(O)cc5)NC(=O)[C@@H]5C[C@@H](O)CN5C(=O)[C@H]([C@@H](C)O)NC4=O)cc3)cc2)cc1 [Example 17] (X3-[Orn(4R-OH,5R-OCH2CH2NMe3+)]T[Hyp][hTyr(3S-OH,4S-OH)]T[Pro(3S-OH,4S-Me)]; lactam 1-C)
- MIC [7, 13]: 0.25 µg/mL
- MIC [7, 14]: 0.25 µg/mL
- MIC [8]: 0.25 µg/mL
- MIC [9]: 0.5 µg/mL
- MIC [10]: 0.5 µg/mL
- MIC [11]: 0.25 µg/mL
- MIC [12]: 0.25 µg/mL
